Test results taken from US20120015925A1, “NOVEL BENZOTHIAZEPINE AND BENZOTHIEPINE COMPOUNDS” (ASAHI KASEI PHARMA CORPORATION, priority 2004, published 2012).
pIC50: −log10 of the molar value.

Assays:
rats dosed cholic acid = test: Lowering effect on bile acid concentrations in portal vein blood in rats dosed cholic acid; assay type: in vivo, rat
Description: In the present Test Example, a lowering effect on bile acid concentrations in portal vein blood in rats dosed cholic acid was evaluated according to the method described in Jpn. Pharmacol. Ther., Vol. 24 Supplement, 1996, 103(S-577)-110(S-584).
That is, SD (IGS) strain male rats at 7 to 9 weeks of age were fasted one day before the administration date. […] The blood was collected from the portal vein 2 hours after the forced oral administration, and a total bile acid value in serum was measured to examine the effect of the test compound (n=6). As a control, another group (n=6) merely received cholic acid (200 mg/kg), to which the same procedure was applied. The cholic acid value was measured using the commercially available kit (brand name: Total Bile Acid-Test Wako, supplied form Wako Pure Chemical Industries). Defining the value in the control group to which no test compound had been administered as being 100%, a reduction rate (%) of the bile acid value when a certain amount of the test compound had been administered was calculated.

human IBAT = biological target: T1, human IBAT (Homo sapiens, UniProt Q12908); test: In vitro assay using Cos 7 cells, transiently expressed human IBAT; assay type: cell-based; details: 37° C., 60 minutes
T1 sequence (Q12908 1-348): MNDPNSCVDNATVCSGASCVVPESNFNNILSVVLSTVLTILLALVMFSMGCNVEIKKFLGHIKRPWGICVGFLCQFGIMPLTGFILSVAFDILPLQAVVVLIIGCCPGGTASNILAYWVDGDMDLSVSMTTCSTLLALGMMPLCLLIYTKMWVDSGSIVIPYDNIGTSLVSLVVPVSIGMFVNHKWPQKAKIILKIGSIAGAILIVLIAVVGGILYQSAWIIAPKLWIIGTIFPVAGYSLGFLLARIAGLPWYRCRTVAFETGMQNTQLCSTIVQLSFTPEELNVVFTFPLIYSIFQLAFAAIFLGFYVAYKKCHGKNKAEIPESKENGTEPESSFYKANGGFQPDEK
Procedure, shortened: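 Cos 7 cells transfected with human or rat IBAT cDNA were assayed one day later in Hanks buffer with 25 mM glucose and 10 mM HEPES (pH 7.4) containing compound. [^3H]-taurocholate (8 μM final) uptake ran 60 min at 37° C. Cells were washed with 1 mM taurocholate, lysed in NaOH, and counted by liquid scintillation.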

rat IBAT = biological target: T2, rat IBAT (Rattus norvegicus, UniProt Q62633); test: In vitro assay using Cos 7 cells, transiently expressed rat IBAT; assay type: cell-based; details: 37° C., 60 minutes
T2 sequence (Q62633 1-348): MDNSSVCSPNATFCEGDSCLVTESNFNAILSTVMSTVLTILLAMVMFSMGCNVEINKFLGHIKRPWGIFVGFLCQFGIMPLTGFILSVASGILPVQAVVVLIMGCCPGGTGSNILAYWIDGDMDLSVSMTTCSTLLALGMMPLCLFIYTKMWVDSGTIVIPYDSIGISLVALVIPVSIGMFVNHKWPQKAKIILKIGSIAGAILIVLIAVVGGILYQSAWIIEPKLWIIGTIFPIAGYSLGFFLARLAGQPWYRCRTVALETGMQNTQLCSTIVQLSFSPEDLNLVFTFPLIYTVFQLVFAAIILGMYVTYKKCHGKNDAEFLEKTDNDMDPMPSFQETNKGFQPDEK
Description: In the present Test Example, an in vitro assay of compounds using Cos 7 cells as to inhibitory activity on transiently expressed human IBAT or rat IBAT transporter was performed according to the method described in Am. J. Physiol., 274, G157-169.
That is, […] cells/well of Cos 7 cells were seeded in a 24-well plate, and after one day, the cells were transfected with 0.3 μg/well of cDNA of human IBAT or rat IBAT using FuGENE6 (supplied from Roche). After culturing for one day after the transfection, the cells were washed once with the assay buffer, i.e., Hanks buffer containing 25 mM glucose and 10 mM HEPES (pH 7.4). The assay buffer was then replaced with the assay buffer containing the test compound. [^3H]-Taurocholate at a final concentration of 8 μM was added thereto and incubated at 37° C. for 60 minutes so that [^3H]-taurocholate was taken into Cos 7 cells by the action of human IBAT or rat IBAT. The cells were washed twice with the assay buffer containing 1 mM taurocholate, and subsequently lysed with 0.2 M NaOH to stop the reaction. The cell lysate was added to 4 mL of liquid scintillation cocktail, which was then thoroughly vortexed. Then the radioactivity was measured using the liquid scintillation counter.

Caco-2 cell = test: Gastrointestinal toxicity: cytotoxicity against Caco-2 cell (LDH activity); assay type: cell-based, human; details: 2 hours, LDH activity in medium relative to cell lysis agent = 100%
Description: That is, 10,000 cells/well of Caco-2 cells (purchased from ATCC) were seeded in a 96-well plate [MEM-E medium, 10% FBS (Fetal Bovine Serum), 1% NEAA (Non Essential Amino Acid) solution, supplied from Gibco]. After culturing for 48 hours, the test compound diluted with the medium was added to each well. After 2 hours, 50 μL of the medium was collected, and an LDH activity in the medium was measured using an LDH activity measurement kit (CytoTox96 Non-Radioactive Cytotoxicity Assay, supplied from Promega). Defining the LDH activity of the Caco-2 cells treated with a cell lysis agent as being 100%, the relative activity was calculated as a index of the cytotoxicity.

[1] = tested on: rats with partial ligation of the bile duct dosed bile acid; test: Model for hepatic disorder associated with cholestasis (partial bile duct ligation model), Protocol A: AST, ALT, ALP; assay type: in vivo, rat; details: Table 11, Protocol A, ursodeoxycholic acid 50 mg/kg oral twice per day for 3.5 days, N=8, mean±standard error
Text: (§1) In the present Test Example, a model for the hepatic disorder caused by partial ligation of the bile duct was employed with reference to Kanno's method (Liver, 43, Suppl(1):A126, 2002).
(§2) That is, to the SD (IGS) strain male rats at 7 to 10 weeks of age, the partial ligation of the bile duct was given with opening the abdominal cavity under anesthesia with pentobarbital. Before the operation, the blood was collected from femoral vein, in order to obtain the value before the administration. From the day after the operation, 200 mg/kg of bile acid and the test compound were orally administered forcibly twice per day for 3.5 days (Protocol A). Without giving the partial ligation of the bile duct, 200 mg/kg of bile acid and the test compound were also orally administered forcibly twice per day for 3.5 days (Protocol B). In both cases, the test compound was dissolved or suspended in distilled water or an aqueous solution of 1% HCO 60 (Nippon Chemicals). To the control group, saline was administered. As comparative examples, 25 mg/kg of cholestyramine (supplied from Sigma) or 50 mg/kg of ursodeoxycholic acid (supplied from Mitsubishi Pharma) was administered. For considering the effect of the operation, sham operation (sham group) was performed in some cases. The blood was collected from the abdominal aorta 6 hours after the drug administration on the final day of the experiment. AST (GOT), ALT (GPT) and ALP in the blood were measured using measurement kits (GOT II-HA Test Wako, GPT II-HA Test Wako and Alkaline Phosphor HA Test Wako, all were supplied from Wako Pure Chemical Industries) and using an automatic analyzer (Nitech ANALAYZER SUPER Z818).

rats dosed bile acid = test: Model for hepatic disorder associated with cholestasis, Protocol B (bile acid without partial ligation): AST, ALT, ALP; assay type: in vivo, rat; details: Table 13, Protocol B, ursodeoxycholic acid 50 mg/kg oral twice per day for 3.5 days, N=8, mean±standard error
Text: as §1, §2

[2] = tested on: rats fed cholesterol food; test: Blood cholesterol lowering effect in rats fed cholesterol food; assay type: in vivo, rat; details: 0.3 mg/kg per administration, oral, twice per day; SD (IGS) male rats; serum 3 hours after final administration
Description: In the present Test Example, a blood cholesterol lowering effect on rats fed cholesterol food was evaluated according to the method described in J. Lipid Res., 1995, 36, 1098-1105.
That is, the food containing 0.4% cholesterol and 0.5% bile acid was given to SD (IGS) strain male rats at 7 to 9 weeks of age for 5 days in advance of the test date, to increase blood cholesterol levels. The rats in which the blood cholesterol level had been obviously elevated from the level before loading the cholesterol food were selected as the subjects in the test. Colestimide (brand name: Cholebine 70% granules, supplied from Mitsubishi Tokyo Pharmaceutical Inc.) which is an anion exchange resin drug was suspended in distilled water, and the test compound was dissolved or suspended in distilled water. They were orally administered forcibly twice per day everyday from the starting date (each n=8). The blood was collected from jugular vein 3 hours after the drug administration on the final day of the experiment, and the cholesterol level in serum was measured to examine the effect of the test compound. As a control, another group (n=8) was merely fed cholesterol food, to which distilled water (1 mL/kg) was administered and the same procedure was applied. The total cholesterol value and the HDL cholesterol value were measured using commercially available kits. The value obtained by subtracting the HDL cholesterol value from the total cholesterol value was regarded as an LDL+VLDL cholesterol value.

Caco-2 cells = test: Measurement of permeability through Caco-2 cell; assay type: in vitro ADME, human; details: 2 hours
Description: Permeability of the compound described in Examples through Caco-2 cells was studied with reference to Artursson Per et al.'s method (Journal of Pharmaceutical Sciences, 79(6): 476-482:1990).
Transwell cell culture chamber (Costar) having a membrane filter coated with collagen (3 μm pores, 0.33 cm^2 growth area) was placed on a 24-well plate. Caco-2 cells (purchased from ATCC) were seeded at the amount of 6.6×10^4 cells/filter (2×10^5 cells/cm^2) (D-MEM medium, 10% FBS (Fetal Bovine Serum), 0.1 mM NEAA (Non Essential Amino Acid), 100 U/mL penicillin, 100 μg/mL streptomycin, supplied from Gibco, and 25 mM glucose). Each Transwell cell culture chamber was placed in each well in a 24-well plate. 0.75 mL of the medium was filled in an external chamber and 0.15 mL of the medium was filled in an internal chamber. The medium was changed every 2 to 3 days, and 18 to 25 days after seeding when a single layer of Caco-2 cells was formed, the cells were used for the test.
In the test for examining the permeability of the compound, the Caco-2 cells cultured in the chamber were used. The internal and external chamber solutions were replaced twice with Hanks balanced salt solution (HBSS) containing 25 mM glucose, 10 mM Hepes and 0.05% Tween 80. […] A permeability coefficient (Papp) was calculated from the formula Papp=dQ/dt/(Co×A). […]

[3] = 0.1 mg/kg oral, surfactant HCO-60 0.1%, cholic acid 200 mg/kg, portal vein blood 2 hours after administration
[4] = 0.1 mg/kg oral, surfactant Tween 20 0.05%, cholic acid 200 mg/kg, portal vein blood 2 hours after administration
[5] = 0.1 mg/kg oral with cholic acid 200 mg/kg, portal vein serum total bile acid 2 hours after, control = 100%, surfactant HCO-60 (##)

Compound | pIC50 (human IBAT; [3H]-taurocholate 8 μM uptake) | pIC50 (rat IBAT; [3H]-taurocholate 8 μM uptake) | CELL TOXICITY AGAINST Caco2 10 μM (Caco-2 cell) [%] | CELL TOXICITY AGAINST Caco2 30 μM (Caco-2 cell) [%] | also measured
CCCCC1(CCCC)CS(=O)(=O)c2ccc(N(C)C)cc2C(c2cccc(NC(=S)Nc3ccc(C[N+]45CCC(CC4)CC5)cc3)c2)N1.[Br-] (racemic) [EXAMPLE 3695] | 7.43 | 8.30 | <1 | <1 | BILE ACID REDUCTION RATE (%) IN RAT MODEL WITH CHOLIC ACID LOADING (rats dosed cholic acid; [3]): 23%; CELL TOXICITY AGAINST Caco2 3 μM (Caco-2 cell): <1%
C[C@H](CCC(=O)O)[C@H]1CC[C@H]2[C@@H]3[C@@H](O)C[C@@H]4C[C@H](O)CC[C@]4(C)[C@H]3CC[C@]12C [Comparative Example 2, ursodeoxycholic acid, reference compound] | – | – | – | – | BILE ACID REDUCTION RATE (%) IN RAT MODEL WITH CHOLIC ACID LOADING (rats dosed cholic acid; [4]): 3%; ALT ([1]; control group 200 ± 81): 98 ± 25 IU/L; AST ([1]; control group 400 ± 160): 256 ± 64 IU/L; ALP ([1]; control group 1120 ± 410): 785 ± 120 IU/L; ALT (rats dosed bile acid; control group 82 ± 17): 62 ± 9 IU/L; AST (rats dosed bile acid; control group 157 ± 35): 109 ± 11 IU/L; ALP (rats dosed bile acid; control group 593 ± 77): 453 ± 58 IU/L
CCCCC1(CCCC)CS(=O)(=O)c2ccc(N(C)C)cc2C(c2cccc(NC(=S)CCCCC[N+]34CCC(c5ccccc5)(CC3)CC4)c2)N1.[Br-] (centres unmarked) [EXAMPLE 3853] | 7.55 | 8.05 | <1 | <1 | BILE ACID REDUCTION RATE (%) IN RAT MODEL WITH CHOLIC ACID LOADING (rats dosed cholic acid; [3]): 36%; CELL TOXICITY AGAINST Caco2 3 μM (Caco-2 cell): <1%
CCCCC1(CCCC)CS(=O)(=O)c2ccc(N(C)C)cc2C(c2cccc(NC(=S)CCCCCCC[N+]34CCC(CC3)CC4)c2)N1.[Br-] (centres unmarked) [EXAMPLE 3932] | 7.44 | 8.05 | – | – | BILE ACID REDUCTION RATE (%) IN RAT MODEL WITH CHOLIC ACID LOADING (rats dosed cholic acid; [4]): 30%
CCCCC1(CCCC)CS(=O)(=O)c2ccc(N(C)C)cc2C(c2cccc(NC(=S)Nc3ccc(C[N+]45CCC(c6ccccc6)(CC4)CC5)c(C)c3)c2)N1.[Br-] (centres unmarked) [EXAMPLE P341] | – | – | <1 | <1 | LDL + VLDL REDUCTION RATE (%) IN CHOLESTEROL FED RAT MODEL (THERAPEUTIC MODEL) [2]: 33%; BILE ACID REDUCTION RATE (%) IN RAT MODEL WITH CHOLIC ACID LOADING (rats dosed cholic acid; [5]): 32%; pIC50 (human IBAT; [3H]-taurocholate 8 μM): 7.66; pIC50 (rat IBAT; [3H]-taurocholate 8 μM): 8.37
CCCCC1(CCCC)CS(=O)(=O)c2ccc(N(C)C)cc2C(c2cccc(NC(=S)Nc3ccc(C[N+]45CCC(c6ccccc6)(CC4)CC5)cc3F)c2)N1.[Br-] (centres unmarked) [EXAMPLE P342] | 7.82 | 8.32 | <1 | <1 | LDL + VLDL REDUCTION RATE (%) IN CHOLESTEROL FED RAT MODEL (THERAPEUTIC MODEL) [2]: 46%; BILE ACID REDUCTION RATE (%) IN RAT MODEL WITH CHOLIC ACID LOADING (rats dosed cholic acid; [5]): 39%
CCCCC1(CCCC)CS(=O)(=O)c2ccc(N(C)C)cc2C(c2cccc(NC(=S)Nc3ccc(C[N+]45CCC(c6ccccc6)(CC4)CC5)c(F)c3)c2)N1.[Br-] (centres unmarked) [EXAMPLE P343] | 7.80 | 8.26 | <1 | <1 | –
CCCCC1(CCCC)CS(=O)(=O)c2ccc(N(C)C)cc2C(c2cccc(NC(=S)Nc3ccc(C[N+]45CCC(c6ccccc6)(CC4)CC5)cc3Br)c2)N1.[Br-] (centres unmarked) [EXAMPLE P346] | 7.72 | 8.22 | <1 | <1 | –
CC(C)NCC(O)COc1cccc2ccccc12 (centres unmarked) [Propranolol] | – | – | – | – | PERMEATION RATIO (PERMEATION × 10^−6 cm/s) (Caco-2 cells; 100 μM in internal chamber, HBSS pH 7.4, 37° C.): 29.4 × 10^−6 cm/s; permeability coefficient (Papp) through Caco-2 cells (Caco-2 cells; 100 μM, 37° C., pH 7.4): high permeability coefficients
